The results in this text go back to ChEMBL document CHEMBL1201862, “PubChem BioAssay data set” (2004).

Active and inactive are the calls of the source. Cut-off read from the data, not from the text of the source, for most assays here: actives have a measured EC50 and inactives only a lower limit.

A short description of experiment [1]: alpha-synuclein stem-loop luciferase translation blockers – H4 neuroglioma cells, luminescence, confirmation (AID 1988). In kind it is functional, cell-based.
The subject of experiment [2] is BJ. Nature of the experiment: cells. Conditions: Homo sapiens. In kind it is functional, cell-based.
Experiment [3] is described as follows: luciferase reporter signal suppression in cells – H4 neuroglioma cells, luminescence, dose response (AID 1990). In kind it is functional, cell-based.
In experiment [4] the test system is BJ. Nature of the experiment: growth inhibition of engineered Ras-driven BJ cells – cell-based, alamar blue fluorescence, cherrypicked samples, dose response (AID 2631).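 Note: confirmatory dose-response assay in RAS-dependent BJ fibroblasts engineered with TERT, LT and ST, with cytotoxicity read by fluorescence.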 It counts as functional. Conditions: Homo sapiens.
Experiment [5] concerns BJ. Nature of the experiment: BJ-TERT-LT-ST fibroblast viability loss – cell-based, RAS-independent, luminescence, dose response (AID 1935).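 Note: BJ fibroblasts immortalized with TERT plus LT and ST oncogenes.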 Conditions: Homo sapiens. In kind it is functional.
Experiment [6] can be described thus: HEK-293T viability loss after treatment – luminescence, T-cell screen hits, cytotoxicity control for TCR NF-kB inhibitor project, dose response (AID 489026).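 Note: cells exposed to compound about 14 hours before the viability readout.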 In kind it is functional, cell-based.
The nature of experiment [7]: Luminescence Cell-Based Dose Response HTS to Identify Inhibitors of 5'UTR Stem-Loop Driven Prion Protein mRNA Translation in H4 Neuroglioblastoma Cells. [Related pubchem assays: 1827 (Project Summary), 1813 (Primary HTS)]. In kind it is functional.
A short description of experiment [8]: DRD fibroblast viability loss – cell-based, non-viral oncogenic, luminescence, dose response (AID 1934). It counts as functional. Conditions: Homo sapiens.
The subject of a further experiment is J774.A1. Put plainly: Confirmation of image-based Screening Assay for Inhibitors of Phagocytosis. [Related pubchem assays (depositor defined):AID1029, AID1643]. Conditions: Mus musculus. In kind it is functional, cell-based.
The test system of experiment [9] is BJ. Put plainly: BJ-TERT fibroblast viability loss – cell-based, RAS-independent, luminescence, dose response (AID 1933). It counts as functional. Conditions: Homo sapiens.
Experiment [10] addresses DNA dC->dU-editing enzyme APOBEC-3G (Homo sapiens, UniProt Q9HC16). Put plainly: Dose Response confirmation of small molecule APOBEC3G DNA Deaminase Inhibitors via a fluorescence-based single-stranded DNA deaminase assay. [Related pubchem assays (depositor defined):AID493012, AID493028]. In kind it is functional.
Experiment [11] has as its target DNA dC->dU-editing enzyme APOBEC-3A (Homo sapiens, UniProt P31941). Put plainly: A3A deaminase inhibition for selectivity – biochemical, dose response (AID 504722). In kind it is functional.
Experiment [12] concerns the target T1, Kappa-type opioid receptor (Homo sapiens, UniProt P41145). In kind it is functional.
The target of experiment [13] is T2, Delta-type opioid receptor (Homo sapiens, UniProt P41143). Nature of the experiment: HTS Image-Based Screen for Agonists of the DOR Receptor. [Related pubchem assays (depositor defined):AID1777, AID1786, AID2133]. In kind it is functional.
The next experiment concerns the target Mu-type opioid receptor (Homo sapiens, UniProt P35372). Nature of the experiment: HTS Image-Based Screen for Agonists of the MOR Receptor. [Related pubchem assays (depositor defined):AID1777, AID1785, AID1786, AID2133]. In kind it is functional.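 Note: imaging of beta-arrestin GFP recruitment into spots after receptor activation.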
Experiment [14] concerns the target T1, Kappa-type opioid receptor. In kind it is functional. This is another data set of the same source.
Experiment [15] concerns the target T2, Delta-type opioid receptor. Put plainly: HTS Image-Based Screen for Antagonists of the DOR Receptor. [Related pubchem assays (depositor defined):AID1777, AID1785, AID1786, AID2133]. In kind it is functional.

T2 sequence (P41143 whole entry): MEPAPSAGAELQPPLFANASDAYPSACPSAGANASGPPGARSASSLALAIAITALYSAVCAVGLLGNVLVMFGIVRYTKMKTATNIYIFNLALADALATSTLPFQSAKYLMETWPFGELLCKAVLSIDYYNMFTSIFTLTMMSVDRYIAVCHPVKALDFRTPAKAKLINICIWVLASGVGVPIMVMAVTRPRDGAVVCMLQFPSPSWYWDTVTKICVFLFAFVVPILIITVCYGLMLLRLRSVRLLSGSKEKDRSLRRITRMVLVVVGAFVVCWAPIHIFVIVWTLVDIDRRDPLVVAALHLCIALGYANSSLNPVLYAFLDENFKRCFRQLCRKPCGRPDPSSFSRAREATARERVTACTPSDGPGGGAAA
T1 sequence (P41145 whole entry): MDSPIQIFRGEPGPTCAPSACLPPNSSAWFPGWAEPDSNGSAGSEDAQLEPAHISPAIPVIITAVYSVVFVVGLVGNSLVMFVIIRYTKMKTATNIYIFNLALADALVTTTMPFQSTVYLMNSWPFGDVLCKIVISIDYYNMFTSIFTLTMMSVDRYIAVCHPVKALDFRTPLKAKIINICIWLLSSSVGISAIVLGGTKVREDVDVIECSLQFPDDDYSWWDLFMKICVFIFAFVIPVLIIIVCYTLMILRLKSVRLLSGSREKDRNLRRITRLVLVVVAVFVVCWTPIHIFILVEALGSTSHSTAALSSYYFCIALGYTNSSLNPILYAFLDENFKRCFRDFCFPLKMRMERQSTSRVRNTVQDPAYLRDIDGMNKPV
Sequence of DNA dC->dU-editing enzyme APOBEC-3A (P31941 whole entry): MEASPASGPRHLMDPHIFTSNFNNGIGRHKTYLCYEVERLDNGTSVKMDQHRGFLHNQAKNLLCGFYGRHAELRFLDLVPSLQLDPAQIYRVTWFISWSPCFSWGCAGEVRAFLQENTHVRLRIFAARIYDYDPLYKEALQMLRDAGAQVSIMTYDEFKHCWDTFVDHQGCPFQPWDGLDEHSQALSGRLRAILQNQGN
Sequence of DNA dC->dU-editing enzyme APOBEC-3G (Q9HC16 whole entry): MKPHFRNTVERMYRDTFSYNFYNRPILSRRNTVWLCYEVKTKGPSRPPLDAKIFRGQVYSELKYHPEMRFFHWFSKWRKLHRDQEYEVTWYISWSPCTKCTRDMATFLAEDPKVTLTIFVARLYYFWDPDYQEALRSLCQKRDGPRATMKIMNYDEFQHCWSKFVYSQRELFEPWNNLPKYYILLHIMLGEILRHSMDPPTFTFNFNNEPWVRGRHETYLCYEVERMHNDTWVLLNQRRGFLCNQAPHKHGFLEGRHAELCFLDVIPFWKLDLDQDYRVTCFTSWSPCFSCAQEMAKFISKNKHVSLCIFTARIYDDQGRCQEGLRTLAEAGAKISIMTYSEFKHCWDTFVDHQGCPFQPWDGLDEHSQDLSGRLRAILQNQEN
Sequence of Mu-type opioid receptor (P35372 whole entry): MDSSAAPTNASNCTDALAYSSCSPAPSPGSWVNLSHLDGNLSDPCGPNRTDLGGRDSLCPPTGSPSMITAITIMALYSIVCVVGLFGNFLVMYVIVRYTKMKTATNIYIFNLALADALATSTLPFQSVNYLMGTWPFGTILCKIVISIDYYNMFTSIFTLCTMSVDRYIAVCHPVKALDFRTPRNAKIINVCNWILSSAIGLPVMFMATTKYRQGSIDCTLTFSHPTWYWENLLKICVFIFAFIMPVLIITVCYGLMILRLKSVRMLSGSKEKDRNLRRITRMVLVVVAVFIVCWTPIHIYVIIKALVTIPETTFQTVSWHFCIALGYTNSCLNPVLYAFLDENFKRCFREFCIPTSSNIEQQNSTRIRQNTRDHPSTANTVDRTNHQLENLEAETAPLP

Regarding `COC(=O)c1[nH]c2c(c1C)C(=O)CC(c1cccs1)C2` (configuration not stated), the EC50 in experiment [1] is 0.469 µM (active); in the experiment on BJ [2], 3.72 µM (inconclusive); in experiment [3], 4.98 µM (active); in the experiment with BJ [4], 0.299 µM (active); in the experiment on BJ [5] it was 0.873 µM (inconclusive); in [7], 7.34 µM (active). Besides, the EC50 was 0.912 µM (active) in experiment [8] and 1.02 µM (active) in the experiment on BJ [9]. Further, the IC50 in experiment [6] was > 80 µM (inactive); in the experiment with J774.A1, 0.116 µM (active).

As for `Cn1c(S)nnc1-c1ccc(C(C)(C)C)cc1`, the IC50 is 4.79 µM (active) in [10] and > 100 µM (inactive) in experiment [11].

`Cc1ccc(Cl)cc1NC(=S)N(Cc1cccs1)C1CCCC1`: the half-maximal effective concentration (EC50) in [12] was 14 µM; in [13], > 32 µM (inactive); at Mu-type opioid receptor it was > 32 µM (inactive); in [14], 13.1 µM. In addition, the IC50 in experiment [15] was > 32 µM (inactive).
